From paper PMC5746462 (Journal of medicinal chemistry, 2017)

Columns and labels:
[1] = male, Swiss Albino, mouse, in vivo, 10 mg/kg
in vivo = conditions: male, Swiss Albino, mouse, po, 10 mg/kg

## CC(C)(C)n1nc(Oc2cccc(Cl)c2)c2c(N)ncnc21 [Compound 2]
[1]
  %F (oral availability): 31%
In vivo
  bioavailability: 25 to 30%
